As a reminder, the TGI is the concentration giving total growth inhibition. Low readings indicate greater sensitivity of the cells, high ones lower sensitivity of the cells.

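In this assay, cells in 96-well plates receive the compound at five concentrations for 48 hours. Endpoints are linearly interpolated between the surrounding concentrations. TGI: concentration producing complete growth inhibition.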

Consider eleven compounds from PubChem BioAssay (NCI).

Holding throughout (test): DTP human tumour cell line panel, 48 h
Assay [1] concerns HOP-62 NSCLC.
Assay [2] relates to MDA-MB-231 breast.
Assay [3] relates to SN12C renal.
In assay [4] the test system is SF-539 CNS.
Assay [5] concerns SK-OV-3 ovarian.
Assay [6] relates to SNB-19 CNS.
Assay [7] concerns SR leukemia.
In assay [8] the test system is K-562 leukemia.
For assay [9], the system named is SK-MEL-5 melanoma.
The test system of assay [10] is SK-MEL-2 melanoma.

As for `Cc1ccc(C(=O)N/N=C(\N=Nc2cccc(Cl)c2)c2ccc(N(CCC#N)CCC#N)cc2C)cc1`, the TGI in assay [1], in assay [2], in assay [3], in [4], in [5] and in assay [6] was more than 100 µM throughout. Besides, the TGI in assay [7], in [8], in assay [9] and in assay [10] was more than 100 µM throughout.

Regarding `CCOC(=O)C(NC(=O)N(C1=NCC(C)S1)C1CCCCC1)(OC)C(F)(F)F` (stereo not given), the TGI in assay [1] was 41.7 µM; in assay [2], more than 100 µM; in assay [3] it was 29.3 µM; in [4] it was 93.1 µM; in assay [5] it was more than 100 µM; in [6] it was more than 100 µM. Further, the TGI in [7] is more than 100 µM; in assay [8], more than 100 µM; in assay [9], 66.8 µM; in assay [10] it was more than 100 µM.

Regarding `CN1CCN(c2c(Cl)cc(Cl)c3[nH]c4ccccc4c(=O)c23)CC1`, the total growth inhibition concentration (TGI) in [1] came out at 19.5 µM; in assay [2], 28.7 µM; in assay [3], 21.5 µM; in [4], 15.3 µM; in assay [5], 24.3 µM; in assay [6] it was 19.7 µM. In addition, the TGI in assay [7] is more than 100 µM; in [8], more than 48.6 µM; in assay [9] it was 31.9 µM; in assay [10] it was 28.1 µM.

With `Cc1cccc2c1[nH]c1[nH]c(=O)[nH]c(=O)c12`, the TGI in assay [1], in assay [2], in assay [3], in assay [4], in assay [5] and in [6] was more than 100 µM in each case. Also, the TGI in assay [7], in assay [8], in assay [9] and in [10] was more than 100 µM throughout.

In the case of `CC1OC2=N[C@@H]1C(=O)N[C@@H](C(C)C)C1=N[C@H](C(=O)N[C@@H](C(C)C)C3=N[C@H](C(=O)N[C@@H](C(C)C)C4=N[C@H](C(=O)N[C@H]2C(C)C)C(C)O4)C(C)O3)C(C)O1` (stereo not given in full), the total growth inhibition concentration (TGI) in [1], in assay [2], in assay [3], in [4], in assay [5] and in assay [6] was more than 10 µM each time. Moreover, the TGI in [7], in assay [8], in assay [9] and in assay [10] was more than 10 µM throughout.

For the compound `COc1cc(/C=C/C(=O)c2c(=O)o[nH][n+]2-c2ccccc2)ccc1[O-]`, the TGI stood at 16 µM in assay [1]; 12.4 µM in assay [2]; 5.3 µM in assay [3]; 5.92 µM in assay [4]; 16.1 µM in assay [5]; 17.4 µM in assay [6]. Also, the TGI in assay [7] worked out at 4.54 µM; in assay [8] it was 8.61 µM; in [9], 15 µM; in assay [10] it was 6.06 µM.

On to `O=C(NCc1cccc(C(F)(F)F)c1)c1cc2sccc2nc1C(F)(F)F`, for which the TGI in assay [1], in assay [2], in [3], in assay [4], in assay [5] and in assay [6] was more than 100 µM each time. Moreover, the TGI in [7], in [8], in assay [9] and in [10] was more than 100 µM in each case.

In the case of `c1ccc(CCNCc2ccco2)nc1`, the total growth inhibition concentration (TGI) in assay [1], in [2], in assay [3], in assay [4], in assay [5] and in assay [6] was more than 100 µM throughout. Also, the concentration for total growth inhibition (TGI) in assay [7] is more than 100 µM; in assay [8], more than 33.6 µM; in assay [9] it was more than 100 µM; in assay [10], more than 100 µM.

Regarding `COc1ccc(N(C)C(=O)N(C)c2ccc([N+](=O)[O-])cc2)cc1`, the total growth inhibition concentration (TGI) in [1] was more than 100 µM; in [2] it was more than 100 µM; in assay [3], more than 100 µM; in assay [4] it was 96.6 µM; in [5], 91.5 µM; in assay [6], more than 100 µM. Besides, the TGI in [7] is more than 100 µM; in assay [8], more than 100 µM; in assay [9] it was more than 100 µM; in assay [10], 45.3 µM.

Take `Cc1cc(C)c(P2C(=C(O[Si](C(C)C)(C(C)C)C(C)C)C(C)(C)C)C2(c2ccccc2)c2ccccc2)c(C)c1` (stereo not given): the concentration for total growth inhibition (TGI) in [1], in assay [2], in assay [3], in [4], in [5] and in [6] was more than 100 µM in each case. Moreover, the total growth inhibition concentration (TGI) in [7], in assay [8], in assay [9] and in assay [10] was more than 100 µM throughout.

For `O=C1C=CC(=O)C(CNc2ccc(C(=O)OC34CC5CC(CC(C5)C3)C4)cc2)=C1`, the total growth inhibition concentration (TGI) in assay [1] is 17.1 µM; in assay [2] it was 36.2 µM; in [3] it was 17.8 µM; in [4] it was 8.89 µM; in assay [5], more than 57.4 µM; in [6] it was 27.8 µM. The total growth inhibition concentration (TGI) is more than 29.3 µM in assay [7], more than 49.3 µM in assay [8], 16.7 µM in [9] and 44.3 µM in assay [10].
